Legend:
corn = experiment: Test B pre/postemergence corn; assay type: in vivo, Zea mays
Method in brief: (§1)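 Response is a visual 0-to-10 score relative to untreated plants, where 0 means no effect and 10 means complete control, taken twelve to sixteen days after application. Treatments went onto soil at planting and onto foliage of 1- to 4-leaf plants, using a surfactant-containing non-phytotoxic solvent.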

velvetleaf = experiment: Test B pre/postemergence velvetleaf; assay type: in vivo, Abutilon theophrasti
Method in brief: as §1

duck salad = experiment: Test B flood test duck salad; assay type: in vivo, Heteranthera limosa
Method in brief: (§2)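 Each value is a visual injury score relative to controls, with 10 meaning complete control and 0 no effect. Evaluation took place twelve to sixteen days after the 2-leaf-stage plants were treated and kept in the greenhouse.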

rape = experiment: Test B pre/postemergence rape; assay type: in vivo, Brassica napus
Method in brief: as §1

bedstraw = experiment: Test B pre/postemergence bedstraw; assay type: in vivo, Galium aparine
Method in brief: as §1

pigweed = experiment: Test B pre/postemergence pigweed; assay type: in vivo, Amaranthus retroflexus
Method in brief: as §1

purple nutsedge = experiment: Test B pre/postemergence purple nutsedge; assay type: in vivo, Cyperus rotundus
Method in brief: as §1

rice = experiment: Test B flood test rice; assay type: in vivo, Oryza sativa
Method in brief: as §2

giant foxtail = experiment: Test B pre/postemergence giant foxtail; assay type: in vivo, Setaria faberii
Method in brief: as §1

surinam grass = experiment: Test B pre/postemergence surinam grass; assay type: in vivo, Brachiaria decumbens
Method in brief: as §1

cocklebur = experiment: Test B pre/postemergence cocklebur; assay type: in vivo, Xanthium strumarium
Method in brief: as §1

soybean = experiment: Test B pre/postemergence soybean; assay type: in vivo, Glycine max
Method in brief: as §1

morningglory = experiment: Test B pre/postemergence morningglory; assay type: in vivo, Ipomoea hederacea
Method in brief: as §1

blackgrass = experiment: Test B pre/postemergence blackgrass; assay type: in vivo, Alopecurus myosuroides
Method in brief: as §1

bamyardgrass = experiment: Test B flood test barnyardgrass; assay type: in vivo, Echinochloa crus-galli
Method in brief: as §2

wheat = experiment: Test B pre/postemergence wheat; assay type: in vivo, Triticum aestivum
Method in brief: as §1

wild oat = experiment: Test B pre/postemergence wild oat; assay type: in vivo, Avena fatua
Method in brief: as §1

crabgrass = experiment: Test B pre/postemergence crabgrass; assay type: in vivo, Digitaria sanguinalis
Method in brief: as §1

sugar beet = experiment: Test B pre/postemergence sugar beet; assay type: in vivo, Beta vulgaris
Method in brief: as §1

smallflower flatsedge = experiment: Test B flood test smallflower flatsedge; assay type: in vivo, Cyperus difformis
Method in brief: as §2

[1] = Postemergence, Rate 125 g/ha, scale 0 to 10, 0 is no effect, 10 is complete control
[2] = Postemergence, Rate 250 g/ha, scale 0 to 10
[3] = Postemergence, Rate 500 g/ha, scale 0 to 10, 0 is no effect, 10 is complete control
[4] = Preemergence, Rate 62 g/ha, scale of 0 to 10 where 0 is no effect and 10 is complete control
[5] = Preemergence, Rate 125 g/ha, scale 0 to 10, 0 is no effect, 10 is complete control
[6] = Preemergence, Rate 500 g/ha, scale of 0 to 10 where 0 is no effect and 10 is complete control
[7] = Rate 62 g/ha, Postemergence, scale 0 to 10, 0 no effect, 10 complete control
[8] = Rate 62 g/ha, flood test species, Pre-emergence, visual evaluation after twelve to sixteen days
[9] = Rate 125 g/ha, under heading Pre-emergence, flood test species, visual evaluation after twelve to sixteen days
[10] = Rate 250 g/ha, Pre-emergence (flood test species), scale 0 to 10, 0 is no effect, 10 is complete control
[11] = Rate 500 g/ha, Pre-emergence section of Table B, 0 to 10 scale (0 no effect, 10 complete control)
[12] = Preemergence, Rate 250 g/ha, scale 0 to 10, 0 is no effect, 10 is complete control

## CC(C)N(C(=O)n1oc(=O)n(CC2=CCCCC2)c1=O)c1ccccc1 [Compound 496]
corn; [1]
  Corn plant response rating: 0
corn; [2]
  Corn plant response rating: 0
corn; [3]
  Plant response rating, Corn: 0
corn; [4]
  Plant response rating, Corn: 0
corn; [5]
  Corn plant response rating: 0
corn; [6]
  Corn plant response rating: 0
corn; [7]
  Corn plant response rating: 0
velvetleaf; [1]
  Velvetleaf plant response rating: 0
velvetleaf; [3]
  Plant response rating, Velvetleaf: 0
velvetleaf; [4]
  Plant response rating, Velvetleaf: 0
velvetleaf; [5]
  Velvetleaf plant response rating: 0
velvetleaf; [6]
  Velvetleaf plant response rating: 0
velvetleaf; [7]
  Velvetleaf plant response rating: 0
Duck salad; [8]
  Plant response rating, Ducksalad (0 to 10 scale, 0 is no effect, 10 is complete control): 0
Duck salad; [9]
  Ducksalad plant response rating (0 to 10 scale, 0 is no effect, 10 is complete control): 0
Duck salad; [10]
  Ducksalad plant response rating: 0
Duck salad; [11]
  Ducksalad plant response rating: 0
rape; [1]
  Rape plant response rating: 0
rape; [3]
  Plant response rating, Rape: 0
rape; [4]
  Plant response rating, Rape: 0
rape; [5]
  Rape plant response rating: 0
rape; [6]
  Rape plant response rating: 0
rape; [7]
  Rape plant response rating: 0
bedstraw; [2]
  Bedstraw plant response rating: 0
bedstraw; [4]
  Plant response rating, Bedstraw: 0
bedstraw; [5]
  Bedstraw plant response rating: 0
pigweed; [1]
  Redroot pigweed plant response rating: 0
pigweed; [3]
  Plant response rating, Redroot pigweed: 3
pigweed; [4]
  Plant response rating, Redroot pigweed: 0
pigweed; [5]
  Redroot pigweed plant response rating: 0
pigweed; [6]
  Redroot pigweed plant response rating: 8
pigweed; [7]
  Redroot pigweed plant response rating: 0
Purple nutsedge; [1]
  Nutsedge plant response rating: 0
Purple nutsedge; [3]
  Plant response rating, Nutsedge: 0
Purple nutsedge; [4]
  Plant response rating, Nutsedge: 0
Purple nutsedge; [5]
  Nutsedge plant response rating: 0
Purple nutsedge; [6]
  Nutsedge plant response rating: 0
Purple nutsedge; [7]
  Nutsedge plant response rating: 0
rice; [8]
  Plant response rating, Rice (0 to 10 scale, 0 is no effect, 10 is complete control): 0
rice; [9]
  Rice plant response rating (0 to 10 scale, 0 is no effect, 10 is complete control): 0
rice; [10]
  Rice plant response rating: 0
rice; [11]
  Rice plant response rating: 0
Giant foxtail; [1]
  Giant foxtail plant response rating: 0
Giant foxtail; [3]
  Plant response rating, Giant foxtail: 0
Giant foxtail; [4]
  Plant response rating, Giant foxtail: 2
Giant foxtail; [5]
  Giant foxtail plant response rating: 8
Giant foxtail; [6]
  Giant foxtail plant response rating: 9
Giant foxtail; [7]
  Giant foxtail plant response rating: 0
Surinam grass; [1]
  B. signalgrass plant response rating: 0
Surinam grass; Postemergence, Rate 250 g/ha, scale 0 to 10, 0 no effect, 10 complete control
  B. signalgrass plant response rating: 0
Surinam grass; [3]
  Plant response rating, B. signalgrass: 4
Surinam grass; [4]
  Plant response rating, B. signalgrass: 0
Surinam grass; [5]
  B. signalgrass plant response rating: 0
Surinam grass; [12]
  B. signalgrass plant response rating: 1
Surinam grass; Preemergence, Rate 500 g/ha, scale 0 to 10, 0 is no effect, 10 is complete control
  B. signalgrass plant response rating: 8
Surinam grass; [7]
  B. signalgrass plant response rating: 0
cocklebur; [1]
  Cocklebur plant response rating: 0
cocklebur; [2]
  Cocklebur plant response rating: 0
cocklebur; [3]
  Plant response rating, Cocklebur: 1
cocklebur; [4]
  Plant response rating, Cocklebur: 0
cocklebur; [5]
  Cocklebur plant response rating: 0
cocklebur; [12]
  Cocklebur plant response rating: 0
cocklebur; [6]
  Cocklebur plant response rating: 0
cocklebur; [7]
  Cocklebur plant response rating: 0
soybean; [1]
  Soybean plant response rating: 3
soybean; [3]
  Plant response rating, Soybean: 3
soybean; [4]
  Plant response rating, Soybean: 0
soybean; [5]
  Soybean plant response rating: 0
soybean; [6]
  Soybean plant response rating: 0
soybean; [7]
  Soybean plant response rating: 2
morningglory; [1]
  Morningglory plant response rating: 8
morningglory; [3]
  Plant response rating, Morningglory: 8
morningglory; [4]
  Plant response rating, Morningglory: 0
morningglory; [5]
  Morningglory plant response rating: 0
morningglory; [6]
  Morningglory plant response rating: 0
morningglory; [7]
  Morningglory plant response rating: 8
blackgrass; [1]
  Blackgrass plant response rating: 3
blackgrass; [2]
  Blackgrass plant response rating: 3
blackgrass; [3]
  Plant response rating, Blackgrass: 5
blackgrass; [4]
  Plant response rating, Blackgrass: 0
blackgrass; [5]
  Blackgrass plant response rating: 0
blackgrass; [12]
  Blackgrass plant response rating: 2
blackgrass; [6]
  Blackgrass plant response rating: 2
blackgrass; [7]
  Blackgrass plant response rating: 2
bamyardgrass; [8]
  Plant response rating, Barnyardgrass (0 to 10 scale, 0 is no effect, 10 is complete control): 0
bamyardgrass; [9]
  Barnyardgrass plant response rating (0 to 10 scale, 0 is no effect, 10 is complete control): 0
bamyardgrass; [10]
  Barnyardgrass plant response rating: 0
bamyardgrass; [11]
  Barnyardgrass plant response rating: 0
wheat; [1]
  Wheat plant response rating: 0
wheat; [3]
  Plant response rating, Wheat: 3
wheat; [4]
  Plant response rating, Wheat: 0
wheat; [5]
  Wheat plant response rating: 0
wheat; [6]
  Wheat plant response rating: 0
wheat; [7]
  Wheat plant response rating: 0
Wild oat; [1]
  Wild oats plant response rating: 0
Wild oat; [3]
  Plant response rating, Wild oats: 2
Wild oat; [4]
  Plant response rating, Wild oats: 0
Wild oat; [5]
  Wild oats plant response rating: 0
Wild oat; [6]
  Wild oats plant response rating: 0
Wild oat; [7]
  Wild oats plant response rating: 0
crabgrass; [1]
  Crabgrass plant response rating: 0
crabgrass; [2]
  Crabgrass plant response rating: 0
crabgrass; [3]
  Plant response rating, Crabgrass: 2
crabgrass; [4]
  Plant response rating, Crabgrass: 0
crabgrass; [5]
  Crabgrass plant response rating: 4
crabgrass; [6]
  Crabgrass plant response rating: 9
crabgrass; [7]
  Crabgrass plant response rating: 0
Sugar beet; [1]
  Sugarbeets plant response rating: 0
Sugar beet; [3]
  Plant response rating, Sugarbeets: 0
Sugar beet; [4]
  Plant response rating, Sugarbeets: 0
Sugar beet; [5]
  Sugarbeets plant response rating: 0
Sugar beet; [6]
  Sugarbeets plant response rating: 0
Sugar beet; [7]
  Sugarbeets plant response rating: 0
Smallflower flatsedge; [8]
  Plant response rating, S. Flatsedge (0 to 10 scale, 0 is no effect, 10 is complete control): 0
Smallflower flatsedge; [9]
  S. Flatsedge plant response rating (0 to 10 scale, 0 is no effect, 10 is complete control): 0
Smallflower flatsedge; [10]
  S. Flatsedge plant response rating: 0
Smallflower flatsedge; [11]
  S. Flatsedge plant response rating: 0

— patent publication US6737383B1, “Herbicidal oxadiazolidines” (priority 1999, dated 2004)
